Reference: patent publication US4459291A, “Compounds having antibiotic activity, processes for their preparation, pharmaceutical compositions containing them and their use as medicaments” (priority 1981, dated 1984)
In brackets after ≈: the same amount, converted by molar mass. Entries after “also recorded” stand apart in the source; their conditions may differ. Where two headings read alike, the source gives them in different places.

Columns and labels:
[1] = tested on: Staphylococcus aureus ATCC 6538P; test: Antibacterial activity by agar dilution method at pH 7.0; format: cell-based; conditions: ATCC6538P
[2] = tested on: Salmonella typhosa ATCC 9992; test: as above; format: cell-based; conditions: Salmonella enterica
[3] = tested on: Klebsiella pneumoniae ATCC 10031; test: as above; format: cell-based
[4] = Solubility; conditions: solvents named in the value
[5] = LD50 (acute toxicity); conditions: in vivo
[6] = tested on: Bacillus subtilis No. 10707; test: Antibacterial activity by agar dilution method at pH 7.0; format: cell-based
[7] = tested on: Escherichia coli ATCC 26; test: as above; format: cell-based

Work on COc1c2c(c(O)c3c4c(c(C)cc13)C1OC3(C(OC)OC)OC1C(O)(O4)C31CO1)C(=O)C(O)CC2OC1CC(C)(O)C(OC(C)=O)C(C)O1 (stereo not shown) [DC-45-A1] yielded an MIC ([1]; Staphylococcus aureus, pH 7, read-out: Minimum Inhibitory Concentration) of 0.4 µg/mL (≈ 0.568 µM), an MIC ([2]; pH 7, read-out: Minimum Inhibitory Concentration) of 50 µg/mL (≈ 71 µM) and an MIC ([3]; Klebsiella pneumoniae, ATCC10031, pH 7, read-out: Minimum Inhibitory Concentration) of 0.4 µg/mL (≈ 0.568 µM). For the same molecule, the Solubility [4] was “Soluble in methanol, ethanol, acetone, ethyl acetate and chloroform; also recorded: soluble with difficulty in benzene and aqueous ether; also recorded: insoluble in n-hexane”, the LD50 ([5]; ip) was 0.375 mg/kg and the LD50 ([5]; iv) was 0.375 mg/kg. It also gave an MIC ([6]; Bacillus subtilis, NO.10707, pH 7, read-out: Minimum Inhibitory Concentration) of 0.04 µg/mL (≈ 0.0568 µM) and an MIC ([7]; Escherichia coli, ATCC26, pH 7, read-out: Minimum Inhibitory Concentration) of 12 µg/mL (≈ 17 µM).
Work on COc1c2c(c(O)c3c4c(c(C)cc13)C1OC3(C(OC)OC)OC1C(O)(O4)C31CO1)C(=O)C(O)CC2O (stereo not shown) [DC-45-A2] yielded an MIC ([1]; Staphylococcus aureus ATCC 6538P, agar dilution, pH 7.0, read-out: Minimum Inhibitory Concentration) of 100 µg/mL (≈ 193 µM), an MIC ([2]; Salmonella typhosa ATCC 9992, agar dilution, pH 7.0, read-out: Minimum Inhibitory Concentration) of 50 µg/mL (≈ 96.4 µM) and an MIC ([3]; ATCC10031, Klebsiella pneumoniae ATCC 10031, agar dilution, pH 7.0, read-out: Minimum Inhibitory Concentration) of 12 µg/mL (≈ 23.1 µM). For the same molecule, the Solubility [4] was “Soluble in methanol, ethanol, acetone, ethyl acetate and chloroform; also recorded: soluble with difficulty in benzene, ether and water; also recorded: insoluble in n-hexane”, the LD50 ([5]; ip) was 5.8 mg/kg and the LD50 ([5]; iv) was 14 mg/kg. The MIC ([6]; Bacillus subtilis No. 10707, agar dilution, pH 7.0, read-out: Minimum Inhibitory Concentration) was 100 µg/mL (≈ 193 µM) and the MIC ([7]; ATCC26, Escherichia coli ATCC 26, agar dilution, pH 7.0, read-out: Minimum Inhibitory Concentration) was 25 µg/mL (≈ 48.2 µM).
